Patent US9844550B2, “Phtalazinone derivatives and manufacturing process thereof” (ILDONG PHARM CO., LTD., priority 2013, dated 2017)

Legend:
[1] = system: Capan-1 pancreatic cancer cell line; assay: Cell viability assay (Capan-1); format: cell-based; conditions: Homo sapiens, 240 h; Capan-1 cells, treated 10 days
Protocol: 3. Cell Viability Assay (Capan-1)
Cell viability assay was performed by using Capan-1 cell line to measure cytotoxicity of compounds in the present invention. Capan-1 pancreatic cancer cell line was seeded into 96-well plates at 37° C. under 5% CO2 atmosphere using IMDM (Sigma) containing 10% FBS (Hyclone). After 24 hr incubation, cells were treated with the invented compounds at various concentrations for 10 days. After 7-day incubation, the medium was changed. 10 days later, A fluorescence reagent was used to determine the IC50 values.

[2] = system: MDA-MB-436 breast cancer cell line; assay: Cell viability assay (MDA-MB-436); format: cell-based; conditions: Homo sapiens, 144 h; MDA-MB-436 cells, treated 6 days
Outline: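 MDA-MB-436 breast cancer cells in DMEM/F12 with 10% FBS, treated 24 h after seeding with graded compound concentrations for 6 days at 37 °C, 5% CO2, medium changed every 3 days. Viability read with a fluorescence reagent; IC50 derived.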

Mouse pharmacokinetics = format: in vivo; design: concentration or dose not given beside the values; conditions: Balb/c male mice, blood samples 15 to 1140 min, LC-MS/MS
Protocol: To evaluate the pharmacokinetics test, the invented compounds (from I-25 to I-1171) were determined as follows. Blood samples are collected at 15, 30, 60, 120, 240, 480, 1140 min. Quantification is by using a LC-MS/MS method specific to the selected compound. Pharmacokinetics parameters are calculated using WinNonLinnon compartmental analysis software.

[3] = system: LNCaP prostate cancer cell line; assay: Cell viability assay (LNCaP); format: cell-based; conditions: Homo sapiens, 264 h; LNCaP cells, treated 11 days
Protocol: 4. Cell Viability Assay (LNCaP)
Cell viability assay was performed by using LNCaP cell line to measure cytotoxicity of compounds in the present invention. LNCaP prostate cancer cell line was seeded into 96-well plates at 37° C. under 5% CO2 atmosphere using RPMI-1640 (Hyclone) containing 10% FBS (Hyclone). After 24 hr incubation, cells were treated with the invented compounds at various concentrations for 11 days. The medium was changed every 3 to 4 day. 11 days later, A fluorescence reagent was used to determine the IC50 values.

`O=C(c1cc(Cc2n[nH]c(=O)c3ccccc23)ccc1F)N1CC(NC2CCC2)C1` [Compound I-25, 4-(3-(3-(cyclobutylamino)azetidine-1-carbonyl)-4-fluorobenzyl)phthalazin-1(2H)-one] gave an IC50 [1] of 0.3 to 1 µM, an IC50 [2] of 0.005 to 0.05 µM and an AUC (Mouse pharmacokinetics) of 831 ng·h/mL.

In the case of `O=C(c1cc(Cc2n[nH]c(=O)c3ccccc23)ccc1F)N1CC(NC2CC2)C1` [Compound I-26, 4-(3-(3-(cyclopropylamino)azetidine-1-carbonyl)-4-fluorobenzyl)phthalazin-1(2H)-one], the IC50 [1] is reported as 0.3 to 1 µM, the IC50 [2] is reported as 0.005 to 0.05 µM and the AUC (Mouse pharmacokinetics) is reported as 3350 ng·h/mL.

Compound `O=C(c1cc(Cc2n[nH]c(=O)c3ccccc23)ccc1F)N1CC(NC2CCCCC2)C1` [Compound I-28, 4-(3-(3-(cyclohexylamino)azetidine-1-carbonyl)-4-fluorobenzyl)phthalazin-1(2H)-one] has an IC50 [1] of 0.3 to 1 µM and an IC50 [2] of 0.005 to 0.05 µM.

Work on `O=C(c1cc(Cc2n[nH]c(=O)c3ccccc23)ccc1F)N1CC[C@@H](NC2CCC2)C1` [Compound I-30, (R)-4-(3-(3-(cyclobutylamino)pyrrolidine-1-carbonyl)-4-fluorobenzyl)phthalazin-1(2H)-one] yielded an IC50 [2] of 0.05 to 0.3 µM and an AUC (Mouse pharmacokinetics) of 521 ng·h/mL.

For `O=C(c1cc(Cc2n[nH]c(=O)c3ccccc23)ccc1F)N1CC[C@@H](NC2CCCC2)C1` [Compound I-31, (R)-4-(3-(3-(cyclopentylamino)pyrrolidine-1-carbonyl)-4-fluorobenzyl)phthalazin-1(2H)-one], the IC50 [1] was 0.05 to 0.3 µM and the IC50 [2] was 0.005 to 0.05 µM.

`CC(C)CNC1CN(C(=O)c2cc(Cc3n[nH]c(=O)c4ccccc34)ccc2F)C1` [Compound I-35, 4-(4-fluoro-3-(3-(isobutylamino)azetidine-1-carbonyl)benzyl)phthalazin-1(2H)-one] gave an IC50 [3] of over 1 µM, an IC50 [1] of 0.3 to 1 µM and an IC50 [2] of at most 0.005 µM. The AUC (Mouse pharmacokinetics) was 2250 ng·h/mL.

`CC(CO)NC1CN(C(=O)c2cc(Cc3n[nH]c(=O)c4ccccc34)ccc2F)C1` (stereo not drawn) [Compound I-36, 4-(4-fluoro-3-(3-((1-hydroxypropan-2-yl)amino)azetidine-1-carbonyl)benzyl)phthalazin-1(2H)-one] gave an IC50 [1] of 0.3 to 1 µM and an IC50 [2] of 0.005 to 0.05 µM.

`CCC(CC)NC1CN(C(=O)c2cc(Cc3n[nH]c(=O)c4ccccc34)ccc2F)C1` [Compound I-40, 4-(4-fluoro-3-(3-(pentan-3-ylamino)azetidine-1-carbonyl)benzyl)phthalazin-1(2H)-one] gave an IC50 [1] of 0.3 to 1 µM and an IC50 [2] of 0.005 to 0.05 µM.

For `CC(C)C(C)NC1CN(C(=O)c2cc(Cc3n[nH]c(=O)c4ccccc34)ccc2F)C1` (stereo not drawn) [Compound I-41, 4-(4-fluoro-3-(3-((3-methylbutan-2-yl)amino)azetidine-1-carbonyl)benzyl)phthalazin-1(2H)-one], the IC50 [1] was 0.3 to 1 µM and the IC50 [2] was at most 0.005 µM.

`CC(NC1CN(C(=O)c2cc(Cc3n[nH]c(=O)c4ccccc34)ccc2F)C1)C1CC1` (stereo not drawn) [Compound I-42, 4-(3-(3-((1-cyclopropylethyl)amino)azetidine-1-carbonyl)-4-fluorobenzyl)phthalazin-1(2H)-one] gave an IC50 [1] of 0.3 to 1 µM and an IC50 [2] of at most 0.005 µM.

Compound `O=C(c1cc(Cc2n[nH]c(=O)c3ccccc23)ccc1F)N1CC(NC2CC3CCC2C3)C1` (stereo not drawn) [Compound I-43, 4-(3-(3-(bicyclo[2.2.1]heptan-2-ylamino)azetidine-1-carbonyl)-4-fluorobenzyl)phthalazin-1(2H)-one] has an IC50 [1] of 0.3 to 1 µM and an IC50 [2] of 0.005 to 0.05 µM.

For `CCC(C)NC1CN(C(=O)c2cc(Cc3n[nH]c(=O)c4ccccc34)ccc2F)C1` (stereo not drawn) [Compound I-44, 4-(3-(3-(sec-butylamino)azetidine-1-carbonyl)-4-fluorobenzyl)phthalazin-1(2H)-one], the IC50 [1] was 0.3 to 1 µM and the IC50 [2] was at most 0.005 µM.

With `CCCCNC1CN(C(=O)c2cc(Cc3n[nH]c(=O)c4ccccc34)ccc2F)C1` [Compound I-53, 4-(3-(3-(butylamino)azetidine-1-carbonyl)-4-fluorobenzyl)phthalazin-1(2H)-one] the IC50 [3] was over 1 µM, the IC50 [1] was 0.3 to 1 µM and the IC50 [2] was at most 0.005 µM. For the same compound, the AUC (Mouse pharmacokinetics) was 1250 ng·h/mL.

For `O=C(c1cc(Cc2n[nH]c(=O)c3ccccc23)ccc1F)N1CC(N2CCC2)C1` [Compound I-75, 4-(3-([1,3′-biazetidine]-1′-carbonyl)-4-fluorobenzyl)phthalazin-1(2H)-one], the IC50 [2] was 0.005 to 0.05 µM and the AUC (Mouse pharmacokinetics) was 475 ng·h/mL.

For `COC[C@H](C)NC1CN(C(=O)c2cc(Cc3n[nH]c(=O)c4ccccc34)ccc2F)C1` [Compound I-82, (S)-4-(4-fluoro-3-(3-((1-methoxypropan-2-yl)amino)azetidine-1-carbonyl)benzyl)phthalazin-1(2H)-one], the IC50 [1] was 0.3 to 1 µM and the IC50 [2] was 0.005 to 0.05 µM.

Compound `COC[C@@H](C)NC1CN(C(=O)c2cc(Cc3n[nH]c(=O)c4ccccc34)ccc2F)C1` [Compound I-83, (R)-4-(4-fluoro-3-(3-((1-methoxypropan-2-yl)amino)azetidine-1-carbonyl)benzyl)phthalazin-1(2H)-one] has an IC50 [3] of over 1 µM, an IC50 [1] of 0.3 to 1 µM and an IC50 [2] of 0.005 to 0.05 µM. The AUC (Mouse pharmacokinetics) was 567 ng·h/mL.

With `CC(C#N)NC1CN(C(=O)c2cc(Cc3n[nH]c(=O)c4ccccc34)ccc2F)C1` (stereo not drawn) [Compound I-100, 2-((1-(2-fluoro-5-((4-oxo-3,4-dihydrophthalazin-1-yl)methyl)benzoyl)azetidin-3-yl)amino)propanenitrile] the IC50 [1] was 0.3 to 1 µM and the IC50 [2] was 0.3 to 1 µM.

Work on `O=C(c1cc(Cc2n[nH]c(=O)c3ccccc23)ccc1F)N1CC[C@@H](Nc2ncccn2)C1` [Compound I-120, (R)-4-(4-fluoro-3-(3-(Pyrimidin-2-ylamino)pyrrolidine-1-carbonyl)benzyl)phthalazin-1(2H)-one] yielded an IC50 [2] of at most 0.005 µM and an AUC (Mouse pharmacokinetics) of 510 ng·h/mL.

Compound `O=C(c1cc(Cc2n[nH]c(=O)c3ccccc23)ccc1F)N1CC[C@@H](Nc2ccc(C(F)(F)F)cn2)C1` [Compound I-131, (R)-4-(4-fluoro-3-(3-((5-(trifluoromethyl)pyridin-2-yl)amino)pyrrolidine-1-carbonyl)benzyl)phthalazin-1(2H)-one] has an IC50 [3] of 0.005 to 0.05 µM and an IC50 [2] of 0.05 to 0.3 µM.

Compound `O=C(c1cc(Cc2n[nH]c(=O)c3ccccc23)ccc1F)N1CC[C@@H](Nc2cc(C(F)(F)F)ccn2)C1` [Compound I-132, (R)-4-(4-fluoro-3-(3-((4-(trifluoromethyl)pyridin-2-yl)amino)pyrrolidine-1-carbonyl)benzyl)phthalazin-1(2H)-one] has an IC50 [1] of 0.005 to 0.05 µM and an IC50 [2] of at most 0.005 µM.

Work on `O=C(c1cc(Cc2n[nH]c(=O)c3ccccc23)ccc1F)N1CC[C@@H](N2CCC2)C1` [Compound I-135, (R)-4-(3-(3-(azetidin-1-yl)pyrrolidine-1-carbonyl)-4-fluorobenzyl)phthalazin-1(2H)-one] yielded an IC50 [2] of 0.005 to 0.05 µM and an AUC (Mouse pharmacokinetics) of 153 ng·h/mL.

For `O=C(c1cc(Cc2n[nH]c(=O)c3ccccc23)ccc1F)N1CC(CN2CCCC2)C1` [Compound I-140, 4-(4-fluoro-3-(3-(pyrrolidin-1-ylmethyl)azetidine-1-carbonyl)benzyl)phthalazin-1(2H)-one], the IC50 [1] was 0.3 to 1 µM, the IC50 [2] was at most 0.005 µM and the AUC (Mouse pharmacokinetics) was 295 ng·h/mL.

For `O=C(c1cc(Cc2n[nH]c(=O)c3ccccc23)ccc1F)N1CC(CN2CCCCC2)C1` [Compound I-141, 4-(4-fluoro-3-(3-(piperidin-1-ylmethyl)azetidine-1-carbonyl)benzyl)phthalazin-1(2H)-one], the IC50 [1] was 0.3 to 1 µM, the IC50 [2] was 0.005 to 0.05 µM and the AUC (Mouse pharmacokinetics) was 193 ng·h/mL.

For `O=C(c1cc(Cc2n[nH]c(=O)c3ccccc23)ccc1F)N1CC(CN2CCC2)C1` [Compound I-142, 4-(3-(3-(azetidin-1-ylmethyl)azetidine-1-carbonyl)-4-fluorobenzyl)phthalazin-1(2H)-one], the IC50 [1] was 0.3 to 1 µM, the IC50 [2] was 0.005 to 0.05 µM and the AUC (Mouse pharmacokinetics) was 88.8 ng·h/mL.

`O=C(c1cc(Cc2n[nH]c(=O)c3ccccc23)ccc1F)N1CC(CNC2CC2)C1` [Compound I-143, 4-(3-(3-((cyclopropylamino)methyl)azetidine-1-carbonyl)-4-fluorobenzyl)phthalazin-1(2H)-one] gave an IC50 [1] of 0.05 to 0.3 µM, an IC50 [2] of at most 0.005 µM and an AUC (Mouse pharmacokinetics) of 673 ng·h/mL.

In the case of `CC(C)CNCC1CN(C(=O)c2cc(Cc3n[nH]c(=O)c4ccccc34)ccc2F)C1` [Compound I-146, 4-(4-fluoro-3-(3-((isobutylamino)methyl)azetidine-1-carbonyl)benzyl)phthalazin-1(2H)-one], the IC50 [3] is reported as over 1 µM, the IC50 [1] is reported as 0.3 to 1 µM and the IC50 [2] is reported as 0.005 to 0.05 µM. The AUC (Mouse pharmacokinetics) was 1090 ng·h/mL.

`O=C(c1cc(Cc2n[nH]c(=O)c3ccccc23)ccc1F)N1CC(CNC2CCC2)C1` [Compound I-148, 4-(3-(3-((cyclobutylamino)methyl)azetidine-1-carbonyl)-4-fluorobenzyl)phthalazin-1(2H)-one] gave an IC50 [2] of at most 0.005 µM and an AUC (Mouse pharmacokinetics) of 472 ng·h/mL.

In the case of `C#CCNCC1CN(C(=O)c2cc(Cc3n[nH]c(=O)c4ccccc34)ccc2F)C1` [Compound I-149, 4-(4-fluoro-3-(3-((prop-2-yn-1-ylamino)methyl)azetidine-1-carbonyl)benzyl)phthalazin-1(2H)-one], the IC50 [3] is reported as over 1 µM, the IC50 [1] is reported as 0.3 to 1 µM and the IC50 [2] is reported as at most 0.005 µM. It also gave an AUC (Mouse pharmacokinetics) of 169 ng·h/mL.
